A short description of series [1]: Three time point assay for plasma, brain and testes distribution after oral dosing. It is filed as in vivo, rat. Conditions: for Brain concentration / Kp brain/plasma / Kp testes/plasma / Plasma concentration / Testes concentration: rat, oral dosing, time point 2 h. As for the experimental part:
Exemplary compounds were tested for distribution in plasma, brain and testes tissue following oral dosing of the compounds in rats. Procedures and results are described below.
Male SD Rats were group-housed (up to four animals/sex/cage) in polysulfone cages with certified aspen wood bedding during acclimation and study period.
Certified rodent diet and water was provided to all animals ad libitum, unless fasting for study procedures.
Appropriate amount of test article was accurately weighed and mixed with an appropriate volume of vehicle to get a clear solution or a uniform suspension; vortexing or sonication in water bath may also be need. Animals were dosed within four hours after the formulation is prepared.
For PO dosing, the dose formulation was administered via oral gavage following facility SOPs. The dose volume was determined by the animals' body weight collected on the morning of dosing day. The dose was 10 mg/kg.
Each blood collection (about 1 mL per time point at one or more of 0.5 h, 2 h, 3 h, 5.3 h, and 7 h) was performed from jugular vein or other suitable site of each animal into pre-chilled commercial EDTA-K2 tubes and placed on wet ice until centrifugation.
Blood samples were processed for plasma by centrifugation at approximately 4° C., 3,200 g for 10 min. Plasma was collected respectively and transferred into pre-labeled 96 well plate or polypropylene tubes, quick frozen over dry ice and kept at −60° C. or lower until LC-MS/MS analysis.
Rat brain was perfused with PBS to remove blood before harvest.
After perfusion, brain and testis were homogenized using homogenizing buffer (15 mM PBS (pH7.4):MeOH=2:1) at the ratio of 1:9 (1 g tissue with 9 mL buffer, the dilution ratio is 10). The brain homogenate was kept at −60° C. or lower until LC-MS/MS analysis. General sample processing procedure (brain homogenate & testis homogenate) using 96-well plate: • 1). An aliquot of 40 μL unknown sample, calibration standard, quality control and dilution quality control (if have), single blank, and double blank sample was added to the 96-well plate respectively; • 2). Each sample (except the double blank) was quenched with 400 μL of IS1 respectively (double blank sample was quenched with 400 μL of I), and then the mixture was vortex-mixed for 10 min at 800 rpm and centrifuged for 15 min at 3220×g, 4° C.; • 3). An aliquot of 50 μL supernatant was transferred to another clean 96-well plate and centrifuged for 5 min at 3220×g, 4° C., then the supernatant was directly injected for LC-MS/MS analysis.
• 1. A LC-MS/MS method for the quantitative determination of test compound in biological matrix was developed under Non-GLP compliance. • 2. A calibration curve with at least 6 non-zero calibration standards was applied for the method including LLOQ. • 3. A set of QCs consisting of low, middle, and high concentrations were applied for the method. • 4. N in 1 cassette LC-MS/MS method was developed for samples coming from different studies and the interference among all cassette analytes was evaluated during the method development. • 5. Cassette administration assay was performed if the mass difference (Δmass) among different analytes was more than 4 Da. In this case, interference evaluation was not necessary.
• 1. If sample number within a batch was ≤12, at least one set of standard curve separated with two parts through begin and end of the sequence, was included in the run, and QCs were not required. The recommended injection order was C8, C6, C4, C2, study samples, C7, C5, C3, C1. • 2. If sample number within a batch was >12, one standard curve and two sets of QCs with low, middle and high concentrations were applied for bioanalysis. Meanwhile, QCs number should be more than 5% of study sample number. • 3. Samples with the same types of matrix in different studies were quantified in one analysis run by using the developed N in 1 cassette LC-MS/MS method. • 4. […]

Series [2] concerns Caco-2 cells. Nature of the series: Caco-2 permeability assay. It is filed as in vitro ADME. The conditions noted are these: for Caco-2: Papp A-B: Caco-2, apical to basolateral. As for the experimental part: Exemplary compounds were tested for cell permeability in Caco-2, MDCKII-MDR1 and MDCKII-BCRP cell lines with efflux transporter engagement inferred from the efflux ratios determined. Procedures and results are described below. […] This feature of certain compounds is in part due to efflux transporter engagement. See, for instance, exemplary such compounds included in data tables below.
The transport buffer in the study was HBSS with 10.0 mM HEPES at pH 7.40±0.05. Test compound was tested at 2.00 μM bi-directionally in duplicate. Digoxin was tested at 10.0 μM bi-directionally in duplicate, while nadolol and metoprolol were tested at 2.00 μM in A to B direction in duplicate. Final DMSO concentration was adjusted to less than 1%. The plate was incubated for 2 hours in CO2 incubator at 37±1° C., with 5% CO2 at saturated humidity without shaking. And all samples after mixed with acetonitrile containing internal standard were centrifuged at 3200×g for 10 min. For nadolol and metoprolol, 200 μL supernatant solution was diluted with 600 μL ultra-pure water for LC-MS/MS analysis. For digoxin and test compounds, 200 μL supernatant solution was diluted with 200 μL ultra-pure water for LC-MS/MS analysis. Concentrations of test and control compounds in starting solution, donor solution, and receiver solution were quantified by LC-MS/MS methodologies, using peak area ratio of analyte/internal standard.
After transport assay, lucifer yellow rejection assay was applied to determine the Caco-2 cell monolayer integrity.
[…] And permeation of lucifer yellow through the monolayer was measured to evaluate the cellular integrity.
The apparent permeability coefficient Papp (cm/s) was calculated using the equation: Papp=(dCr/dt)×Vr/(A×C0), where dCr/dt is the cumulative concentration of compound in the receiver chamber as a function of time (μM/s); Vr is the solution volume in the receiver chamber (0.075 mL on the apical side, 0.25 mL on the basolateral side); A is the surface area for the transport, i.e. 0.0804 cm^2 for the area of the monolayer; C0 is the initial concentration in the donor chamber (μM).
The efflux ratio was calculated using the equation: Efflux Ratio=Papp (BA)/Papp(AB).
Percent recovery was calculated using the equation: % Solution Recovery=100×[(Vr×Cr)+(Vd×Cd)]/(Vd×C0), where Vd is the volume in the donor chambers (0.075 mL on the apical side, 0.25 mL on the basolateral side); Cd and Cr are the final concentrations of transport compound in donor and receiver chambers, respectively.

As to `Cc1ccc(-c2noc([C@H](C)O)n2)cc1NC(=O)c1cnc2ccccn12` [Compound I-271], in series [1], the Brain concentration is 325 ng/g, the Kp brain/plasma turned out to be 0.18, the Kp testes/plasma is given as 0.58 and the Plasma concentration came to 1760 ng/mL. In series [1], the Testes concentration is 1020 ng/g. In addition, in series [2], the “Caco-2: Efflux Ratio” value was 2.93 and the “Caco-2: Papp A-B” value is listed as 6.26 10^−6 cm/s.

In series [1], `COCCOCc1ccn2c(C(=O)Nc3cc(-c4noc([C@H]5C[C@@H]5F)n4)ccc3C)cnc2c1` [Compound I-84] came in with a Brain concentration of 400 ng/g, a Kp brain/plasma of 0.07, a Kp testes/plasma of 0.11 and a Plasma concentration of 5900 ng/mL. Further, the Testes concentration in series [1] stood at 655 ng/g. The “brain penetration as indicated by Kp (Cbrain/Cplasma)” value in series [1] (result in words) is listed as “do not significantly penetrate the brain or minimally penetrate the brain”. Besides, in series [2], the “Caco-2: Efflux Ratio” value was 1.8 and the “Caco-2: Papp A-B” value is 11.8 10^−6 cm/s.

For the molecule `Cc1ccc(-c2noc(C3(N)CC4(CC(F)(F)C4)C3)n2)cc1NC(=O)c1cnc2ccccn12` [Compound I-307], in series [1], the Brain concentration came to 82.4 ng/g, the Kp brain/plasma stood at 0.21, the Kp testes/plasma is 1.19 and the Plasma concentration amounted to 389 ng/mL. For the same molecule, the Testes concentration in series [1] worked out at 464 ng/g. Further, in series [2], the “Caco-2: Efflux Ratio” value worked out at 1.79 and the “Caco-2: Papp A-B” value is listed as 9.28 10^−6 cm/s.

In series [1], `Cc1ccc(-c2noc(C3CCS(=O)(=O)C3)n2)cc1NC(=O)c1cnc2ccccn12` (racemic) [Compound I-389] displayed a Brain concentration of 63 ng/g, a Kp brain/plasma of 0.03, a Kp testes/plasma of 0.91 and a Plasma concentration of 2030 ng/mL. This molecule yielded a Testes concentration in series [1] of 1830 ng/g. In series [2], the “Caco-2: Efflux Ratio” value turned out to be 25.4 and the “Caco-2: Papp A-B” value is 1.25 10^−6 cm/s.

In series [1], `Cc1ccc(-c2noc([C@@H](C)O)n2)cc1NC(=O)c1cnc2ccccn12` [Compound I-270] gave a Brain concentration of 25.6 ng/g, a Kp brain/plasma of 0.06, a Kp testes/plasma of 0.09 and a Plasma concentration of 422 ng/mL. The molecule also registered a Testes concentration in series [1] of 39.3 ng/g. Further, in series [2], the “Caco-2: Efflux Ratio” value turned out to be 3.35 and the “Caco-2: Papp A-B” value is listed as 8.5 10^−6 cm/s.

In series [1], `Cc1ccc(-c2noc(CC(C)O)n2)cc1NC(=O)c1cnc2ccccn12` (racemic) [Compound I-363] showed a Brain concentration of 46 ng/g, a Kp brain/plasma of 0.06, a Kp testes/plasma of 0.13 and a Plasma concentration of 815 ng/mL. This molecule also had a Testes concentration in series [1] of 104 ng/g. Moreover, in series [2], the “Caco-2: Efflux Ratio” value is 2.55 and the “Caco-2: Papp A-B” value is listed as 8.85 10^−6 cm/s.

On to `CCCS(=O)(=O)N1CC(c2nc(-c3ccc(Cl)c(NC(=O)c4cnc5ccccn45)c3)no2)C1` [Compound I-220], for which, in series [2], the “Caco-2: Efflux Ratio” value came to 0.25 and the “Caco-2: Papp A-B” value was 16.5 10^−6 cm/s.

Consider `Cc1nc(-c2ccc(Cl)c(NC(=O)c3cnc4ccccn34)c2)no1` [Compound I-172], for which, in series [2], the “Caco-2: Efflux Ratio” value amounted to 0.49 and the “Caco-2: Papp A-B” value was 12.9 10^−6 cm/s.

In series [1], `Cc1ccc(-c2noc(C3(O)CC(F)(F)C3)n2)cc1NC(=O)c1cnc2ccccn12` [Compound I-380] came in with a Brain concentration of 28.2 ng/g, a Kp brain/plasma of 0.06, a Kp testes/plasma of 0.09 and a Plasma concentration of 477 ng/mL. This molecule returned a Testes concentration in series [1] of 44.8 ng/g. In addition, in series [2], the “Caco-2: Efflux Ratio” value was found to be 3.45 and the “Caco-2: Papp A-B” value was 7.5 10^−6 cm/s.

On to `Cc1ccc(-c2noc(C3CCC3F)n2)cc1NC(=O)c1cnc2ccccn12` (racemic) [Compound I-376], for which, in series [2], the “Caco-2: Efflux Ratio” value stood at 0.85 and the “Caco-2: Papp A-B” value is 19.5 10^−6 cm/s.

Take `O=C(Nc1cc(-c2noc([C@H]3C[C@@H]3F)n2)ccc1Cl)c1cnc2ccccn12` [Compound I-341]: in series [2], the “Caco-2: Efflux Ratio” value amounted to 0.56 and the “Caco-2: Papp A-B” value is 16.2 10^−6 cm/s.

As to `COC(=O)N1CC(c2nc(-c3ccc(C)c(NC(=O)c4cnn5ccc(Br)cc45)c3)no2)C1` [Compound I-280], in series [2], the “Caco-2: Efflux Ratio” value is reported as 0.86 and the “Caco-2: Papp A-B” value is 14 10^−6 cm/s.

Regarding `CNC(=O)N1CC(c2nc(-c3ccc(C)c(NC(=O)c4cnc5ccccn45)c3)no2)C1` [Compound I-282], in series [2], the “Caco-2: Efflux Ratio” value turned out to be 152 and the “Caco-2: Papp A-B” value is listed as 0.14 10^−6 cm/s.

In the case of `Cc1ccc(-c2noc(C3CCC(F)C3)n2)cc1NC(=O)c1cnc2ccccn12` (racemic) [Compound I-319], in series [2], the “Caco-2: Efflux Ratio” value is given as 0.83 and the “Caco-2: Papp A-B” value was 16 10^−6 cm/s.

As to `Cc1ccc(-c2noc(C3COC3)n2)cc1NC(=O)c1cnc2ccccn12` [Compound I-138], in series [2], the “Caco-2: Efflux Ratio” value is recorded as 1.42 and the “Caco-2: Papp A-B” value is on record as 16.6 10^−6 cm/s.

`Cc1ccc(-c2noc(CCO)n2)cc1NC(=O)c1cnc2ccccn12` [Compound I-306]: in series [2], the “Caco-2: Efflux Ratio” value is given as 3.66 and the “Caco-2: Papp A-B” value was 7.03 10^−6 cm/s.

As to `Cc1ccc(-c2noc(CC(C)(C)O)n2)cc1NC(=O)c1cnc2ccccn12` [Compound I-336], in series [2], the “Caco-2: Efflux Ratio” value is listed as 2.62 and the “Caco-2: Papp A-B” value is reported as 9.39 10^−6 cm/s.

In the case of `Cc1ccc(-c2noc(C3CC(C)(F)C3)n2)cc1NC(=O)c1cnc2ccccn12` (stereo not drawn) [Compound I-387], in series [2], the “Caco-2: Efflux Ratio” value is recorded as 0.77 and the “Caco-2: Papp A-B” value is 14.5 10^−6 cm/s.

For the origin of these results see patent US20240254119A1 (THIRD HARMONIC BIO, INC., priority 2022, published 2024).
